Results on two molecules are retold here after publication PMC8245078, “Development of novel benzofuran-isatin conjugates as potential antiproliferative agents with apoptosis inducing mechanism in Colon cancer” (Journal of Enzyme Inhibition and Medicinal Chemistry, 2021).

In general, GI50 refers to the concentration at which growth is held to half of that of the control. Usually TGI stands for the concentration giving total growth inhibition. Read a low TGI as more potent growth arrest. For orientation: LC50 means the concentration lethal to half of the exposed cells or organisms.

The subject of test [1] is cleaved PARP in SW-620 cells. Description: Western blot analysis of cleaved PARP. The class given is cell-based, human. The note with it: SW-620, 5 μM and 10 μM, 24 h. From the text:
To further examine the possible mechanism of apoptosis, the effect of compounds 5a and 5d on certain apoptosis-related proteins was studied. Bcl2 protein as a critical component of the mitochondrial apoptotic pathway is reported to be overexpressed in numerous tumours causing survival of cancer cell[62]. In addition, it was reported that caspase activation during apoptosis leads to proteolytic cleavage of several cellular substrates participating in DNA reparation including [poly (ADP-ribose) polymerase][63]. Therefore, the impact of compounds 5a and 5d on the anti-apoptotic protein Bcl2 and the level of cleaved PARP was examined (Figure 7). […]
2.5. Western Blot Analysis
All cells were seeded in a 100 mm dish (1 × 10^6 cells per dish) in 5% CO2 at 37 °C in the appropriate culture medium. The cells with around 50% confluency were treated with compounds for 24h. At the experiment day, cells were washed with 1x PBS, harvested and lysed in RIPA lysis buffer, combined with protease inhibitors, (Sigma-Aldrich, St. Louis, MO, USA) as described previously (39)). The total protein concentration was evaluated by the colorimetric Bradford protein assay (BIO-RAD inc, CA, USA) at 595 nm absorbance. Lysates were loaded in […]
equal concentration and separated by sodium dodecyl sulfate-polyacrylamide gel electrophoresis (SDS-PAGE) and then transferred to a nitrocellulose membrane by semi-dry. […]
Background: Immunoblotting shows a protein as a band on a membrane.

A further test relates to SW-620 cells. In words: Annexin V-FITC/propidium iodide apoptosis assay. It is filed as cell-based, human. The conditions noted are these: for total increase in apoptosis vs control untreated cells: 24 h; for induction of apoptosis (in words): SW-620, 5 and 10 µM; for total increase in apoptosis vs control untreated cells, range: SW-620, over the concentrations 5 and 10 µM. The procedure:
Further investigation for compounds 5a and 5d concerning their potential role of apoptosis induction, using Annexin V-FITC/PI double staining assay, was performed to evaluate their impact on both early and late apoptosis percentages in SW-620 cancer cell lines (Figure 6). […] As shown, compound 5a induced approximately 1.7-folds and 3.8-folds total increase in apoptosis at concentration of 5 µM and 10 µM, respectively, in comparison to the control untreated SW-620 cell line (Figure 6(A)).
Figure 6. (A) AnnexinV/PI apoptosis assay for compound 5a. Tow concentrations (5 and 10 µM) of compound 5a, in addition untreated plate as a control were used to test the apoptotic effect by using Annexin V/PI in SW-620 cell line. Cells were treated with the compound 5a for 24 h. (B) AnnexinV/PI apoptosis assay for compound 5d. Tow concentrations (5 and 10 µM) of compound 5d, in addition untreated plate as a control were used to test the apoptotic effect by using Annexin V/PI in SW-620 cell line. Cells were treated with the compound 5d for 24 h. […] Their printed values are 1.93%, 2.06%, 1.81% in panel A and 0.73%, 2.01%, 1.62% in panel B. […]
2.4. Measurement of Apoptosis by Annexin V-FITC/PI Assay
Induction of apoptosis was measured by Dead Cell Apoptosis Kit with Annexin V FITC and PI, for flow cytometry (Thermofischer scientific, OR, USA) according to the manufacturer’s instruction. SW620 cells were seeded in a 6-well plate (3 × 10^5 cells per well) and treated with the various compound for 24h. Both floating and adherent cells were harvested, pooled together, and incubated with Annexin V-FITC and PI for 15 min on ice in dark. The cells were analyzed by BD FACSCalibur™ cell analyzer (BD Biosciences, CA, USA) at an emission of 530 nm (FL1 channel) and >575 nm (FL3). […]

For a further test, the system named is SK-OV-3. It is filed as cell-based, human. The note with it: SK-OV-3, five-dose test.
The next test concerns TK-10. The class given is cell-based, human. The note with it: TK-10, five-dose test.
Another test has as its system SF-295. It is filed as cell-based, human. The note with it: SF-295, five-dose test.
Another test has as its system M14. The class given is cell-based. The note with it: M14, five-dose test.
The next test deals with Melanoma subpanel. It is filed as cell-based, human.
For another test, the system named is MDA-MB-435. It is filed as cell-based. The note with it: MDA-MB-435, five-dose test.
In the next test the test system is EKVX. It is filed as cell-based. The note with it: five-dose test.
Another test deals with CAKI-1. It is filed as cell-based, human. The note with it: CAKI-1, five-dose test.
A further test relates to DU-145. The class given is cell-based. The conditions noted are these: Homo sapiens; DU-145, five-dose test.
The next test deals with OVCAR-8. The class given is cell-based. The conditions noted are these: OVCAR-8, five-dose test.
The subject of another test is OVCAR-5. The class given is cell-based. The conditions noted are these: Homo sapiens; OVCAR-5, five-dose test; read-out: LC50 (the source's name).
Another test has as its system IGROV1. It is filed as cell-based. The conditions noted are these: Homo sapiens, IGROV-1; IGROV1, five-dose test.
Another test deals with 786-0. It is filed as cell-based, human. The note with it: 786-0, five-dose test.
Where [2] appears, read: Homo sapiens, read-out: LC50 (the source's name).

`Cc1c(C(=O)N/N=C2\C(=O)Nc3ccccc32)oc2ccccc12` [Compound 5a]: the “level of cleaved PARP (Western blot, in words)” value in [1] is recorded as “significant increase”. In addition, in the test on SW-620 cells (SW-620, 5 µM), the “total increase in apoptosis vs control untreated cells” value is “approximately 1.7 folds”. Moreover, the “total increase in apoptosis vs control untreated cells” value in the test with SW-620 cells (SW-620, 10 µM) is about 3.8 folds. For the same molecule, in the test on SW-620 cells, the “induction of apoptosis (in words)” value was “dose dependent induction of apoptosis” and the “total increase in apoptosis vs control untreated cells, range” value is 1.7–3.8 folds.
Regarding `COc1ccc2c(c1)/C(=N/NC(=O)c1oc3ccccc3c1C)C(=O)N2` [Compound 5d], the GI50 in the test with SK-OV-3 (Homo sapiens) amounted to 1.82 µM; with TK-10 (Homo sapiens) it was 2.32 µM; in the test with SF-295 (Homo sapiens), 2.03 µM; with Melanoma subpanel (Homo sapiens, Melanoma subpanel, read-out: MG-MID (GI50 average of the subpanel)) it was 3.18 µM; in the test on EKVX (Homo sapiens), 2.94 µM; with CAKI-1 (Homo sapiens) it was 1.56 µM. In addition, the GI50 with OVCAR-8 (Homo sapiens) worked out at 3.22 µM; in the test with IGROV1, 2.1 µM; in the test with 786-0 (Homo sapiens) it was 1.99 µM. Also, the TGI with SK-OV-3 is 3.83 µM; in the test with TK-10, 4.02 µM; in the test on SF-295 it was 4.13 µM; in the test on M14, over 100 µM; with MDA-MB-435 it was over 100 µM; in the test with EKVX, over 100 µM. In addition, the values for the TGI in the test with CAKI-1, in the test with OVCAR-8 and in the test on 786-0 were 3.24 µM, over 100 µM and 3.84 µM, respectively. The CC50 in the test with M14 (setting [2]), in the test with MDA-MB-435 (setting [2]) and in the test on OVCAR-5 was over 100 µM each time. The same molecule had a Selectivity index in the test on Melanoma subpanel (full panel MID / subpanel MID, Melanoma) of 0.78. The “level of cleaved PARP (Western blot, in words)” value in [1] is “significant increase”. The same molecule yielded an LC50 (concentration giving 50% net cell kill) in the test with EKVX (Homo sapiens) of over 100 µM. The 50% lethal concentration (LC50) in the test with DU-145, in the test on OVCAR-8 (Homo sapiens) and with IGROV1 was over 100 µM throughout. Further, the “total increase in apoptosis vs control untreated cells” value is on record as about 2.9 folds in the test with SW-620 cells (SW-620, 5 µM) and about 3.8 folds with SW-620 cells (SW-620, 10 µM). The “induction of apoptosis (in words)” value in the test on SW-620 cells is listed as “dose dependent induction of apoptosis”. The “total increase in apoptosis vs control untreated cells, range” value in the test on SW-620 cells is reported as 2.9–3.8 folds.
